From PMC11267363, “Supramolecular Nanofibers Ameliorate Bleomycin‐Induced Pulmonary Fibrosis by Restoring Autophagy” (Advanced Science, 2024)
Ends that are not written are not given here.

Key:
TRB3/p62 PPIs = target: T1, TRB3/p62 PPIs (Homo sapiens, UniProt Q96RU7); assay: Co-immunoprecipitation and CLSM co-localization of TRB3/p62 in activated MRC-5 cells; format: cell-based; conditions: TGF-β1 10 ng/mL, peptide 50 µM, 24 h
T1 construct: endogenous in cells
T1 sequence (Q96RU7 1-358): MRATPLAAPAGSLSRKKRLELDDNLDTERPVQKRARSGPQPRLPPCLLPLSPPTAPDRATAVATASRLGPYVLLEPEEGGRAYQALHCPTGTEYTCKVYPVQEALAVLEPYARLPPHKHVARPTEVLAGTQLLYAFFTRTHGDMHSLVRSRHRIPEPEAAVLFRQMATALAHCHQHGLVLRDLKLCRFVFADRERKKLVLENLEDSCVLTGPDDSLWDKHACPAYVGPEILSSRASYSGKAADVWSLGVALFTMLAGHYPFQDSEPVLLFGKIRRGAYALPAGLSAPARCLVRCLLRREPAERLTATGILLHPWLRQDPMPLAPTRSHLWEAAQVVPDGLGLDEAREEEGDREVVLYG
Procedure: The MRC‐5 cells were seeded on the CLSM dish at a density of 6 × 10^4 cells. After adherence, the solution containing TGF‐β1 (10 ng mL^−1), saline plus TGF‐β1 (10 ng mL^−1), A2 (50 µM) plus TGF‐β1 (10 ng mL^−1), Ac‐GFFY‐A2 (50 µM) TGF‐β1 (10 ng mL^−1), was added to incubate cells for 24 h, respectively. Then, the medium was removed and the cells were washed with cold PBS three times. The cells were fixed with 4% of Paraformaldehyde for 10 min at room temperature. Then, the solution was sucked away, and washed by cold PBS three times for a min each time. 0.1% Triton X‐100 solution was used to disrupt the cell membrane structure. […]
Total proteins were exacted from cells or tissues with RIPA lysis buffer (Beyotime Biotecnology). The protein concentration was measured using BCA Protein Assay Kit (Thermo Scientific). […] The protein transferred PVDF membranes were incubated with following primary antibodies at 4°C overnight: Then the membranes were incubated with horseradish peroxidase (HRP)-conjugated secondary antibodies at room temperature for 1 h, and protein signals were detected using an enhanced chemiluminescence kit (Pierce). […] The co -precipitates were resolved using SDS–PAGE and detected with immunoblotting. […]
Hydroxyproline content of right lung of each mouse was measured using a conventional hydroxyproline method as previously described.

[1] = tested on: bleomycin-induced pulmonary fibrosis; assay: Bleomycin model of pulmonary fibrosis, therapeutic treatment; format: in vivo, C57BL/6 mice; conditions: for survival rate: bleomycin 2 U kg−1 intratracheal, i.v. treatment from 7 days later, Ac-GFFY-A2 10 mg/kg, 21-day period, n = 16
Excerpt: We further evaluated the anti‐fibrotic effect of Ac‐GFFY‐A2 peptide nanofibers in vivo. […] The observed reductions in fibrosis, collagen accumulation, and protein levels of Col 1 and α‐SMA strongly support the efficacy of Ac‐GFFY‐A2 in combating fibrotic processes, confirming that the peptide nanofibers as a TRB3/p62 PPIs modulator with a potent anti‐fibrotic activity.
C57BL/6 mice were intratracheally administered with bleomycin at a dose of 2 U kg^−1 body weight as previously described.^[ [11a] ^]
Hydroxyproline content of the right lung of each mouse was measured using a conventional hydroxyproline method as previously described.^[ [30] ^]
The left lungs cleared of blood were inflated with 10% neutral buffered formalin and fixed overnight. Then the tissues were embedded in paraffin and sectioned. The 5‐µm sections were stained with H&E and Masson trichrome according to the manufacturer`s instructions (Sigma–Aldrich). Immunohistochemistry was performed as previously described.^[ [30] ^] The antibodies specific for α‐SMA and Collagen I were used for staining.

Substance | disruption of TRB3/p62 PPIs (co-IP, co-localization) (TRB3/p62 PPIs) | survival rate [1] | quantification of fibrotic left lung sections (lung fibrotic score) ([1]; bleomycin mice, i.v. treatment, H&E, compared to saline or A2) | body weight ([1]; bleomycin mice, i.v. treatment, average body weight curve) | hydroxyproline content ([1]; bleomycin mice, i.v. treatment, bleomycin challenge alone ≈480)
Ac-GFFYGGWLTRLLQTK-OH [Ac-GFFY-A2] | successfully inhibited the TRB3/p62 PPIs | 68.75% | significant decrease in fibrosis | partial recovery from the body weight loss | ≈ 280 µg per right lung tissue
GGWLTRLLQTK-OH [A2, reference compound] | minimal capacity to disrupt the TRB3/p62 PPIs | 62.50% | – | – | –
